Test system: cultured primary hippocampal neurons
Assay: Translation reporter assay: EGFP-αCaMKII 3′ UTR reporter mRNA transfected into neurons
Assay type: cell-based, rat

N#CC(=C(/N)Sc1ccccc1N)/C(C#N)=C(\N)Sc1ccccc1N [U0126]
Translation of EGFP-αCaMKII-A20 reporter mRNA: still more strongly inhibited

— patent US20100150839A1, “Compositions and Methods for Modulating Cognitive Function” (Massachusetts Institute of Technology, priority 2005, published 2010)
